≈ marks a conversion by molar mass, not a printed value.
Key:
[1] = Absolute oral bioavailability in overnight fasted Sprague-Dawley rat at 5 mg/kg measured for 0.25 to 24 hrs; format: ADME, organism-based; conditions: in vivo, time 0.25-24 hrs
A549 [2] = assay: Potency index, ratio of SKLB-TB1001 to test compound CC50 for cytotoxicity against human A549 cells; format: functional
A549 [3] = assay: Cytotoxicity against human A549 cells; format: functional
[4] = tested on: Mycobacterium tuberculosis; format: functional, H37Rv; conditions: dose 50 mg/kg/day; route po; time <= 28 day
[5] = AUC in overnight fasted Sprague-Dawley rat at 5 mg/kg measured for 0.25 to 24 hrs; format: ADME, organism-based; parameters: time upper 24 hrs, dose 5 mg/kg, time lower 0.25 hrs; conditions: in vivo
[6] = Half life in overnight fasted Sprague-Dawley rat at 5 mg/kg measured for 0.25 to 24 hrs; format: ADME, organism-based; conditions: in vivo, time 0.25-24 hrs
[7] = tested on: Mycobacterium tuberculosis; assay: microbe, parasite or virus in culture; conditions: H37Rv
Description: Antibacterial activity against Mycobacterium tuberculosis H37Rv assessed as inhibition of bacterial growth

[8] = tested on: Mycobacterium tuberculosis; format: functional, H37Rv; conditions: dose 50 mg/kg; route po; time 4 weeks
[9] = Selectivity index, ratio of CC50 for human HepG2 cells to MIC99 for Mycobacterium tuberculosis H37Rv; format: toxicity
[10] = Solubility of the compound; format: physicochemical
[11] = tested on: Mycobacterium tuberculosis; format: functional; conditions: H37Rv, time 6 day
HepG2 = assay: Cytotoxicity against human HepG2 cells; format: functional
[12] = tested on: Mycobacterium tuberculosis; format: functional; conditions: H37Rv, time 14-21 day
[13] = tested on: Mycobacterium tuberculosis; format: functional; conditions: H37Rv, 120 h, time 5 day
[14] = tested on: Mycobacterium tuberculosis; assay: Antibacterial activity against Mycobacterium tuberculosis Erdman in acute Mtb infection BALB/c mouse model assessed as reduction in log10 CFU in lungs at 50 mg/kg, po via gavage for 8 weeks; format: functional
[15] = tested on: Mycobacterium tuberculosis; format: functional; conditions: H37Rv
[16] = tested on: Mycobacterium tuberculosis; format: functional; conditions: H37Rv, 168 h, time 7 day
[17] = tested on: Mycobacterium tuberculosis; assay: Antibacterial activity against Mycobacterium tuberculosis Erdman in acute Mtb infection BALB/c mouse model assessed as reduction in log10 CFU in lungs at 200 mg/kg, po daily via gavage for 3 weeks; format: functional
[18] = Cytotoxicity against human MRC5 cells; format: toxicity, cell-based
[19] = tested on: Mycobacterium tuberculosis; assay: Antibacterial activity against non-replicating Mycobacterium tuberculosis assessed as inhibition of bacterial growth; format: functional
[20] = tested on: Mycobacterium tuberculosis; assay: Antibacterial activity against Mycobacterium tuberculosis in chronic Mtb infection Wistar rat model assessed as reduction in log10 CFU in lungs at 100 mg/kg, po; format: functional
[21] = tested on: Mycobacterium tuberculosis; assay: Bactericidal activity against Mycobacterium tuberculosis H37Rv in chronic Mtb infection BALB/c mouse model assessed as log10 CFU kill at 20 mg/kg, po qd via gavage measured after 4 weeks; format: functional
[22] = tested on: Mycobacterium tuberculosis; format: functional; conditions: dose 100 mg/kg; route po; time 4 weeks
[23] = tested on: Mycobacterium tuberculosis; format: functional; conditions: H37Rv, 336 h, time 14 day
[24] = tested on: Mycobacterium tuberculosis; format: functional; conditions: dose 50 mg/kg; route po; time 4 weeks
[25] = Oral bioavailability in Swiss Webster mouse at 10 mg/kg measured for 0.25 to 24 hrs by LC-MS/MS analysis; format: ADME, organism-based; conditions: in vivo, time 0.25-24 hrs
[26] = tested on: Mycobacterium tuberculosis; format: functional, H37Rv
[27] = tested on: Mycobacterium tuberculosis; assay: Antibacterial activity against Mycobacterium tuberculosis Kurono in chronic Mtb infection Slc:ICR mouse model assessed as reduction in log10 CFU in lungs at 2.5 mg/kg, po qd for 4 weeks; format: functional

Structure (SMILES): C[C@H]1COC2(CCN(c3nc(=O)c4cc(C(F)(F)F)cc([N+](=O)[O-])c4s3)CC2)O1 [BTZ-043]
- bioavailability [1]: 30%
- Ratio (A549 [2]): 4
- CC50 (A549 [3]): 58 µM
- Activity [4]: 0.6 log10CFU
- AUC [5]: 899 ng·h/mL
- half-life [6]: 1.2 h

Structure (SMILES): c1cc2c(s1)CCOC21CCN(Cc2ccc3c(c2)OCCO3)CC1
- MIC90 [7]: 0.3 µM (≈ 0.107 µg/mL)

Structure (SMILES): O=c1nc(N2CCN(S(=O)(=O)C3CC3)CC2)sc2c([N+](=O)[O-])cc(C(F)(F)F)cc12
- Activity [8]: 0.5 log10CFU
- selectivity ratio [9]: 2620
- solubility [10]: 19 µM (≈ 8.82 µg/mL)
- MIC99 [11]: 0.0065 µM (≈ 0.00302 µg/mL)
- CC50 (HepG2): 17 µM

Structure (SMILES): CC(=O)NC[C@H]1CN(c2ccc(N3CCOCC3)c(F)c2)C(=O)O1 [LINEZOLID]
- MIC [12]: 1.5 µM (≈ 0.506 µg/mL)
- MIC [7]: 1.5 µM (≈ 0.506 µg/mL)

Structure (SMILES): CS(=O)(=O)N1N=Cc2ccc(Oc3ccc(C#N)cc3)cc2B1O
- MIC90 [13]: 36 µM (≈ 12.3 µg/mL)

Structure (SMILES): CCc1nc2ccc(Cl)cn2c1C(=O)NCc1ccc(N2CCC(c3ccc(OC(F)(F)F)cc3)CC2)cc1 [TELACEBEC]
- Activity [14]: 0.6 log10CFU
- MIC50 [15]: 0.0027 µM (≈ 0.0015 µg/mL)
- MIC90 [7]: 0.011 µM (≈ 0.00613 µg/mL)

Structure (SMILES): N=C(N)NC(=O)c1nc(-c2cc3ccccc3o2)c(N)nc1N
- MIC [7]: 4 µM (≈ 1.25 µg/mL)

Structure (SMILES): O=S(=O)(NCCO)c1ccc(-c2nnn(Cc3ccc(F)cn3)n2)cc1
- MIC [7]: 0.07 µM (≈ 0.0265 µg/mL)

Structure (SMILES): CC(=O)NC[C@H]1CN(c2ccc(N3CCSCC3)c(F)c2)C(=O)O1 [SUTEZOLID]
- MIC80 [7]: 0.28 µM (≈ 0.099 µg/mL)

Structure (SMILES): O=C(N/N=C/c1cccc(Oc2no[n+]([O-])c2S(=O)(=O)c2ccccc2)c1)c1ccncc1
- MIC [16]: 1.6 µM (≈ 0.745 µg/mL)
- Activity [17]: >6 log10CFU
- CC50 [18]: 30 µM
- MIC90 [19]: 6.7 µM (≈ 3.12 µg/mL)

Structure (SMILES): Cc1cc(Nc2ncc(Cl)c(Nc3ccccc3S(=O)(=O)C(C)C)n2)c(OC(C)C)cc1C1CCNCC1 [CERITINIB]
- MIC90 [7]: 9 µM (≈ 5.02 µg/mL)

Structure (SMILES): Fc1ccc(-c2nnc3sc(COc4ccccc4)nn23)cc1
- MIC [7]: 25 µM (≈ 8.16 µg/mL)

Structure (SMILES): COc1ncnc(Cn2cc(C(=O)NCCO)c3ncc(C)cc32)c1C [TBA-7371]
- Activity [20]: 1 log10CFU

Structure (SMILES): CC(C)/N=c1\cc2n(-c3ccc(Cl)cc3)c3ccccc3nc-2cc1Nc1ccc(Cl)cc1 [CLOFAZIMINE]
- Activity [21]: 2.2 log10CFU

Structure (SMILES): CCOC(=O)c1c(-c2ccccc2)oc2ccc(O)c(CN3CCC(C)CC3)c12
- MIC90 [7]: 2.5 µM (≈ 0.984 µg/mL)

Structure (SMILES): CC1(C)CCC(NC(=O)c2cc3c(Cl)cc(Cl)cc3[nH]2)CC1
- MIC90 [7]: 0.02 µM (≈ 0.00679 µg/mL)
- Activity [22]: 3.1 log10CFU

Structure (SMILES): O=S1(=O)C[C@H](O)[C@@H](N2CCN(c3ccccc3Cl)CC2)C1
- MIC [7]: 0.76 µM (≈ 0.251 µg/mL)

Structure (SMILES): CCc1cc(C(N)=S)ccn1 [ETHIONAMIDE]
- MIC [7]: 12 µM (≈ 1.99 µg/mL)

Structure (SMILES): O=C(Nc1ccc(N2CCSCC2)c(F)c1)c1ccc2no[n+]([O-])c2c1
- MIC90 [23]: 0.7 µM (≈ 0.262 µg/mL)

Structure (SMILES): N[C@@H]1CONC1=O [CYCLOSERINE]
- MIC [7]: 157 µM (≈ 16 µg/mL)

Structure (SMILES): C[C@@H]1[C@H]2C[C@@H](C[C@H]1NC(=O)c1cc3c(F)cc(F)cc3[nH]1)C2(C)C
- Activity [24]: 4.7 log10CFU
- bioavailability [25]: 96%
- Activity [22]: 3.6 log10CFU

Structure (SMILES): COc1nc2ccc(Br)cc2cc1[C@@H](c1ccccc1)[C@@](O)(CCN(C)C)c1cccc2ccccc12 [BEDAQUILINE]
- Ratio [26]: 6
- MIC90 [7]: 0.022 µM (≈ 0.0122 µg/mL)

Structure (SMILES): O=C1CCc2c(OC[C@]3(O)CCN(c4c(F)cc(Cl)cc4F)C[C@H]3O)ccc(F)c2N1 [QUABODEPISTAT]
- Activity [27]: >1 log10CFU

Source: ChEMBL document CHEMBL5137025, “Tuberculosis Drug Discovery: Challenges and New Horizons” (J Med Chem, 2022)
